Results from a compilation of properties of binary mixtures (doi:10.1039/c3ra40303c).

Assay: xn = mol fraction of the nth substance listed
Conditions: 101 kPa

CC(O)C(=O)[O-].C[N+](C)(C)CCO + CCO
viscosity (293.15 K, x2 = 0): 818 mPa·s | viscosity (293.15 K, x2 = 0.1039): 553 mPa·s | viscosity (293.15 K, x2 = 0.2011): 365 mPa·s | viscosity (293.15 K, x2 = 0.3999): 132.5 mPa·s | viscosity (293.15 K, x2 = 0.5003): 73.48 mPa·s | viscosity (293.15 K, x2 = 0.601): 39.35 mPa·s | viscosity (293.15 K, x2 = 0.8996): 3.602 mPa·s | viscosity (298.15 K, x2 = 0): 559 mPa·s | viscosity (298.15 K, x2 = 0.1039): 388 mPa·s | viscosity (298.15 K, x2 = 0.2011): 263.7 mPa·s | viscosity (298.15 K, x2 = 0.2996): 165.1 mPa·s | viscosity (298.15 K, x2 = 0.3999): 101.5 mPa·s | viscosity (298.15 K, x2 = 0.5003): 57.11 mPa·s | viscosity (298.15 K, x2 = 0.601): 31.94 mPa·s | viscosity (298.15 K, x2 = 0.7013): 14.73 mPa·s | viscosity (298.15 K, x2 = 0.8996): 3.207 mPa·s | viscosity (303.15 K, x2 = 0): 393 mPa·s | viscosity (303.15 K, x2 = 0.1039): 277.4 mPa·s | viscosity (303.15 K, x2 = 0.2011): 193.2 mPa·s | viscosity (303.15 K, x2 = 0.2996): 123.9 mPa·s | viscosity (303.15 K, x2 = 0.3999): 78.06 mPa·s | viscosity (303.15 K, x2 = 0.5003): 45.19 mPa·s | viscosity (303.15 K, x2 = 0.7013): 12.36 mPa·s | viscosity (303.15 K, x2 = 0.7987): 6.351 mPa·s | viscosity (308.15 K, x2 = 0): 283.9 mPa·s | viscosity (308.15 K, x2 = 0.1039): 203.7 mPa·s | viscosity (308.15 K, x2 = 0.2996): 94.9 mPa·s | viscosity (308.15 K, x2 = 0.3999): 61.01 mPa·s | viscosity (308.15 K, x2 = 0.5003): 36.35 mPa·s | viscosity (308.15 K, x2 = 0.601): 21.38 mPa·s | viscosity (308.15 K, x2 = 0.7013): 10.49 mPa·s | viscosity (308.15 K, x2 = 0.7987): 5.524 mPa·s | viscosity (308.15 K, x2 = 0.8996): 2.548 mPa·s | viscosity (313.15 K, x2 = 0): 209.9 mPa·s | viscosity (313.15 K, x2 = 0.1039): 152.9 mPa·s | viscosity (313.15 K, x2 = 0.2011): 110.8 mPa·s | viscosity (313.15 K, x2 = 0.2996): 74.08 mPa·s | viscosity (313.15 K, x2 = 0.3999): 48.57 mPa·s | viscosity (313.15 K, x2 = 0.5003): 29.65 mPa·s | viscosity (313.15 K, x2 = 0.601): 17.83 mPa·s | viscosity (313.15 K, x2 = 0.7013): 8.99 mPa·s | viscosity (313.15 K, x2 = 0.7987): 4.841 mPa·s | viscosity (313.15 K, x2 = 0.8996): 2.286 mPa·s | viscosity (318.15 K, x2 = 0.1039): 117.2 mPa·s | viscosity (318.15 K, x2 = 0.2011): 86.3 mPa·s | viscosity (318.15 K, x2 = 0.2996): 58.82 mPa·s | viscosity (318.15 K, x2 = 0.3999): 39.27 mPa·s | viscosity (318.15 K, x2 = 0.5003): 24.51 mPa·s | viscosity (318.15 K, x2 = 0.7013): 7.773 mPa·s | viscosity (318.15 K, x2 = 0.7987): 4.27 mPa·s | viscosity (318.15 K, x2 = 0.8996): 2.059 mPa·s | viscosity (323.15 K, x2 = 0): 122.3 mPa·s | viscosity (323.15 K, x2 = 0.2011): 68.43 mPa·s | viscosity (323.15 K, x2 = 0.2996): 47.45 mPa·s | viscosity (323.15 K, x2 = 0.3999): 32.22 mPa·s | viscosity (323.15 K, x2 = 0.601): 12.83 mPa·s | viscosity (323.15 K, x2 = 0.7013): 6.779 mPa·s | viscosity (323.15 K, x2 = 0.8996): 1.862 mPa·s | viscosity (328.15 K, x2 = 0): 95.9 mPa·s | viscosity (328.15 K, x2 = 0.2011): 55.07 mPa·s | viscosity (328.15 K, x2 = 0.2996): 38.8 mPa·s | viscosity (328.15 K, x2 = 0.3999): 26.76 mPa·s | viscosity (328.15 K, x2 = 0.5003): 17.33 mPa·s | viscosity (328.15 K, x2 = 0.7013): 5.952 mPa·s | viscosity (328.15 K, x2 = 0.8996): 1.685 mPa·s | viscosity (333.15 K, x2 = 0): 76.5 mPa·s | viscosity (333.15 K, x2 = 0.2011): 44.95 mPa·s | viscosity (333.15 K, x2 = 0.2996): 32.13 mPa·s | viscosity (333.15 K, x2 = 0.3999): 22.49 mPa·s | viscosity (333.15 K, x2 = 0.5003): 14.8 mPa·s | viscosity (333.15 K, x2 = 0.7013): 5.255 mPa·s | viscosity (333.15 K, x2 = 0.7987): 3.041 mPa·s | viscosity (333.15 K, x2 = 0.8996): 1.525 mPa·s | viscosity (338.15 K, x2 = 0): 61.9 mPa·s | viscosity (338.15 K, x2 = 0.1039): 47.9 mPa·s | viscosity (338.15 K, x2 = 0.2011): 37.15 mPa·s | viscosity (338.15 K, x2 = 0.2996): 26.9 mPa·s | viscosity (338.15 K, x2 = 0.5003): 12.76 mPa·s | viscosity (338.15 K, x2 = 0.601): 8.445 mPa·s | viscosity (338.15 K, x2 = 0.7013): 4.66 mPa·s | viscosity (338.15 K, x2 = 0.7987): 2.747 mPa·s | viscosity (338.15 K, x2 = 0.8996): 1.38 mPa·s | viscosity (343.15 K, x2 = 0): 50.76 mPa·s | viscosity (343.15 K, x2 = 0.1039): 39.73 mPa·s | viscosity (343.15 K, x2 = 0.2011): 31.06 mPa·s | viscosity (343.15 K, x2 = 0.2996): 22.76 mPa·s | viscosity (343.15 K, x2 = 0.3999): 16.36 mPa·s | viscosity (343.15 K, x2 = 0.5003): 11.09 mPa·s | viscosity (343.15 K, x2 = 0.601): 7.459 mPa·s | viscosity (343.15 K, x2 = 0.7013): 4.145 mPa·s | viscosity (343.15 K, x2 = 0.7987): 2.498 mPa·s | viscosity (343.15 K, x2 = 0.8996): 1.265 mPa·s
